Results published in US5610177A, “Acylated amino acids as endothelin antagonists” (Warner-Lambert Company, priority 1994, dated 1997).
pIC50: −log10 of the molar value. Like-named read-outs stand apart in the source and are kept apart here. Where no end group is shown, it is not given here.

Legend:
ETB = settings: isolated, endothelium-intact porcine pulmonary arteries; cited from earlier work
ETB receptors [1] = molecular target: T1, ETB receptors (Homo sapiens, UniProt P24530); assay: HERBA-B, [125I]-ET-1 binding to recombinant human ETB receptor expressed in CHO-K1 cell membranes; design: expressed in transfected cells; host or cells: CHO-K1 cells (membranes)
T1 sequence (P24530 27-442): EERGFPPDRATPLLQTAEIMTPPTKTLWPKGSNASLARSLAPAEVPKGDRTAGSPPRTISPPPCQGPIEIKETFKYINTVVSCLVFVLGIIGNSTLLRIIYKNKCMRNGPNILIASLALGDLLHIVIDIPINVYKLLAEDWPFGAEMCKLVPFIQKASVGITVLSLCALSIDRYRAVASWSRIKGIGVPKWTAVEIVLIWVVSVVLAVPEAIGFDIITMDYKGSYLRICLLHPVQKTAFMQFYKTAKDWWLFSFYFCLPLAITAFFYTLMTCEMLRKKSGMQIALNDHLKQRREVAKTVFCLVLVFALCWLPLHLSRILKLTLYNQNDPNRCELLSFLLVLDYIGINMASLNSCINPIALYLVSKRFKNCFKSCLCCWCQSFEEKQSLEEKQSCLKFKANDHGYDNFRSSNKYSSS
Experimental: The compounds of Formula I are valuable antagonists of endothelin. […] The above process has also been modified by using human recombinant CHO-K1 cells. […] The gene for human ETB receptor was cloned and inserted into the pRc-CMW expression vector, then transfected into CHO-K1 cells by electroporation. For binding assays, membranes (0.7 mg protein) of CHO-K1 cells expressing recombinant human ETB receptor were used.

[2] = molecular target: T2, endothelin receptor of rabbit renal artery vascular smooth muscle cells (Oryctolagus cuniculus, UniProt A5A8K3); assay type: binding; settings: [125I]-ET-1 25 pM, 37° C., 2 hours, read-out: IC50 ERBA-A
T2 sequence (A5A8K3 21-427): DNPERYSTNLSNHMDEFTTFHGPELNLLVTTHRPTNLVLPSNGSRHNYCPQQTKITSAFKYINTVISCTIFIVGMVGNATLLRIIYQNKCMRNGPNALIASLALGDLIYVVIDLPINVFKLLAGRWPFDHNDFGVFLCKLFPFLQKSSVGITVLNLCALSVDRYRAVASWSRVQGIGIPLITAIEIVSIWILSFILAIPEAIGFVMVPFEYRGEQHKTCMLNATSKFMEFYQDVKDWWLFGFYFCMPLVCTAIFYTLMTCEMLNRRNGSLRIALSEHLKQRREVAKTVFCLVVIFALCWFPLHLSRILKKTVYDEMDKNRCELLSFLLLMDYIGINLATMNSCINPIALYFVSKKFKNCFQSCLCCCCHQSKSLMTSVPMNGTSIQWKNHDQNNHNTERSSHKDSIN
Source text: The compounds of Formula I are valuable antagonists of endothelin.

ETB receptors [3] = molecular target: T1, ETB receptors; assay: AAR-B, inhibition of ET-3 stimulated arachidonic acid release in CHO cells expressing recombinant ETB receptors; assay type: cell-based; design: expressed in transfected cells; host or cells: Chinese hamster ovary (CHO) cells; settings: ET-3 (1.0 nM) stimulated [3H]arachidonic acid release, read-out: IC50 AAR-B (Antagonist)
[4] = molecular target: T3, endothelin receptor of rat cerebellar membranes (Rattus norvegicus, UniProt P21451); assay: Endothelin receptor binding assay-B (ERBA-B), [125I]-ET-1 binding in rat cerebellar membranes; settings: [125I]-ET-1 25 pM, 37° C., 2 hours
T3 sequence (P21451 27-442): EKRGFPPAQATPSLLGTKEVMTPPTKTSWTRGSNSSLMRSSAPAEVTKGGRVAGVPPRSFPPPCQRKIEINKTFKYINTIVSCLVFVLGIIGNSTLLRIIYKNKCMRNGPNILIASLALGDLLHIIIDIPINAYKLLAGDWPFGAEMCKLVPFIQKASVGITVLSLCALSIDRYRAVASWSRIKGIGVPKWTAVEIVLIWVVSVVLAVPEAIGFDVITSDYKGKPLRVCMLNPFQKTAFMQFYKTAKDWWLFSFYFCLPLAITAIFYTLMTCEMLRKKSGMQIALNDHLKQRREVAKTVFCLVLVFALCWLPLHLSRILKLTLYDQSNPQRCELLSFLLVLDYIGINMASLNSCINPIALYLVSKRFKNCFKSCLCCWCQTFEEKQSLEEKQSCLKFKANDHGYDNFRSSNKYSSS
Source text: The compounds of Formula I are valuable antagonists of endothelin. […] ENDOTHELIN RECEPTOR BINDING […]-1 BINDING IN RAT CEREBELLAR MEMBRANES […] Count filters for radioactivity in gamma counter.

ETA and ETB receptors [5] = settings: cited from earlier work
endothelin receptor = settings: cited from earlier work
ETA and ETB receptors [6] = settings: rats, cited from earlier work
ETA and ETB receptors [7] = settings: rats, cited from earlier work; remark: listed apart in the source
ETA and ETB receptors [8] = settings: orally administered; cited from earlier work
endothelin ETA receptor [9] = settings: intracisternal, canine subarachnoid hemorrhage model; cited from earlier work
endothelin ETA receptor [10] = settings: rats; cited from earlier work
ETA receptor = settings: intraperitoneal, rats; cited from earlier work
[11] = intracerebroventricular, rats; cited from earlier work
ETA = settings: cited from earlier work

| pIC50 (ETB receptors [1]) | pIC50 [2] | Molecule | also measured |
| --- | --- | --- | --- |
|  |  | N-Acetyl-ET [N-Acetyl-ET [10-21,11,15-Ala]] | vasorelaxation (ETB): caused vasorelaxation |
| 4.74 | 4.60 | CC(Cc1ccc(O)cc1)(NC(=O)C(Cc1cccc2ccccc12)Cc1cccc2ccccc12)C(=O)O (racemic) [Example 14, Bis-(1-naphthylmethyl)acetyl-(α-methyl-D, L-tyrosine)] |  |
| 6.24 | 5.00 | C[C@](Cc1c[nH]c2ccccc12)(NC(=O)C(Cc1cccc2ccccc12)Cc1cccc2ccccc12)C(=O)O [Example 1, Bis-(1-naphthylmethyl)acetyl-(α-methyl-D-tryptophan)] | pIC50 (ETB receptors [3]): 5.60; pIC50 [4]: 6.22 |
|  |  | COc1ccccc1Oc1c(NS(=O)(=O)c2ccc(C(C)(C)C)cc2)nc(-c2ncccn2)nc1OCCO [Ro 47-0203] | ETA/ETB receptor antagonism and selectivity (ETA and ETB receptors [5]): non-selective ETA /ETB antagonists; blood brain barrier crossing (endothelin receptor; inferred from rabbit subarachnoid hemorrhage model): crosses the blood brain barrier; reversal of vasoconstriction (endothelin receptor; rabbit subarachnoid hemorrhage model): effective in a rabbit subarachnoid hemorrhage model in reversing vasoconstriction |
| 5.19 | 4.85 | CC(Cc1ccccc1)(NC(=O)C(Cc1cccc2ccccc12)Cc1cccc2ccccc12)C(=O)O (racemic) [Example 13, Bis-(1-naphthylmethyl)acetyl-(α-methyl-D, L-phenylalanine)] |  |
| 5.04 | 4.85 | C[C@](Cc1c[nH]c2ccccc12)(NCC(Cc1cccc2ccccc12)Cc1cccc2ccccc12)C(=O)O [Example 15, N-[2-bis-(1-naphthylmethyl)ethyl]-(α-methyl-D-tryptophan)] |  |
| 4.80 | < 4.60 | C[C@](Cc1c[nH]c2ccccc12)(NC(=O)C(Cc1ccc2ccccc2c1)Cc1ccc2ccccc2c1)C(=O)O [Example 3, Bis-(2-naphthylmethyl)acetyl-(α-methyl-D-tryptophan)] |  |
|  |  | Cc1noc(NS(=O)(=O)c2cccc3c(N(C)C)cccc23)c1C [BMS182874] | ETA/ETB receptor antagonism and selectivity (ETA and ETB receptors [5]): ETA specific antagonists |
| 5.13 | < 4.60 | C[C@](Cc1c[nH]c2ccccc12)(NC(=O)C(CC1CCCCC1)CC1CCCCC1)C(=O)O [Example 16, Bis-(cyclohexylmethyl)acetyl-(α-methyl-D-tryptophan)] |  |
| 4.57 | < 4.60 | C[C@](Cc1c[nH]c2ccccc12)(NC(=O)C(Cc1c(F)c(F)c(F)c(F)c1F)Cc1c(F)c(F)c(F)c(F)c1F)C(=O)O [Example 7, Bis-(2,3,4,5,6-pentafluorophenylmethyl)acetyl-(α-methyl-D-tryptophan)] |  |
|  | < 4.52 | C[C@@](Cc1c[nH]c2ccccc12)(NC(=O)C(Cc1cccc2ccccc12)Cc1cccc2ccccc12)C(=O)O [Example 8, Bis-(1-naphthylmethyl)acetyl-(α-methyl-L-tryptophan)] | pIC50 [4]: 4.77 |
|  |  | COc1cccc(Oc2c(NS(=O)(=O)c3ccc(C(C)(C)C)cc3)ncnc2OCCO)c1 [Ro 46-2005] | effect in renal ischemia (ETA and ETB receptors [6]): protective effect for renal vasoconstriction after renal ischemia; effect in renal ischemia (ETA and ETB receptors [6]; listed as RO 46-2005): effective in models of acute renal ischemia; ETA/ETB receptor antagonism and selectivity (ETA and ETB receptors [5]): non-selective ETA /ETB antagonists; effect in subarachnoid hemorrhage (ETA and ETB receptors [7]): dramatically reduced cerebral vasoconstriction after subarachnoid hemorrhage; effect in subarachnoid hemorrhage (ETA and ETB receptors [7]; listed as RO 46-2005): effective in models of acute renal ischemia and subarachnoid hemorrhage in rats; antihypertensive effect (ETA and ETB receptors [8]): marked antihypertensive effect with a reasonably long duration |
| 5.54 | < 4.60 | Cc1cccc(CC(Cc2cccc(C)c2C)C(=O)N[C@](C)(Cc2c[nH]c3ccccc23)C(=O)O)c1C [Example 4] |  |
| 5.00 | < 4.60 | CC(Cc1cccc2ccccc12)(Cc1cccc2ccccc12)C(=O)N[C@](C)(Cc1c[nH]c2ccccc12)C(=O)O [Example 12, Bis-2-(1-naphthylmethyl)-2-methylacetyl-(α-methyl-D-tryptophan)] |  |
| 4.72 | < 4.60 | C[C@](Cc1c[nH]c2ccccc12)(NC(=O)C(Cc1ccccc1)Cc1ccccc1)C(=O)O [Example 5, Di-benzylacetyl-(α-methyl-D-tryptophan)] |  |
|  |  | FR 139317 | vasoconstriction of the basilar artery (endothelin ETA receptor [9]): significantly reduced the vasoconstriction of the basilar artery; ETA/ETB receptor antagonism and selectivity (ETA and ETB receptors [5]): potent endothelin ETA receptor antagonist; ET-1 induced arrhythmia (endothelin ETA receptor [10]): suppressed; permeability to proteins, glomerular injury and renal function (ETA receptor): reduced abnormal permeability to proteins and limited glomerular injury and prevented renal function deterioration |
| 5.85 | 4.85 | C[C@](Cc1c[nH]c2ccccc12)(NC(=O)C(Cc1cccc2c1CCCC2)Cc1cccc2c1CCCC2)C(=O)O [Example 6, Bis-(5,6,7,8-tetrahydro-1-naphthylmethyl)acetyl-(α-methyl-D-tryptophan)] |  |
| 5.66 | 4.59 | C[C@](Cc1c[nH]c2ccccc12)(NC(=O)C(Cc1ccccc1)Cc1cccc2ccccc12)C(=O)O (stereo partly drawn) [Example 9, 2-(1-Naphthylmethyl)-2-benzylacetyl-(α-methyl-D-tryptophan)] | pIC50 (ETB receptors [3]): 5.18 |
|  |  | Endothelin-1 (CSCSSLMDKECVYFCHLDIIW; not fully specified (bridges); cysteine pairing not given here; UniProt P05305 53-73, looked up) [ET-1] | behavioral effects [11]: evoke several behavioral effects |
| 5.33 | < 4.60 | Cc1cccc(CC(Cc2cccc(C)c2)C(=O)N[C@](C)(Cc2c[nH]c3ccccc23)C(=O)O)c1 [Example 11, Bis-(3-methylphenylmethyl)acetyl-(α-methyl-D-tryptophan)] | pIC50 (ETB receptors [3]): 5.00 |
|  |  | Cc1noc(NS(=O)(=O)c2cccc3c(N(C)C)cccc23)c1C [5-(Dimethylamino)-N-(3,4-dimethyl-5-isoxazolyl)-1-naphthalenesulfonamide] | oral antihypertensive effect (ETA): oral antihypertensive effect |
| 5.82 | < 4.60 | Cc1ccccc1CC(Cc1ccccc1C)C(=O)N[C@](C)(Cc1c[nH]c2ccccc12)C(=O)O [Example 10, Bis-(2-methylphenylmethyl)acetyl-(α-methyl-D-tryptophan)] | pIC50 (ETB receptors [3]): 5.02 |
| 5.80 | < 4.60 | C[C@](Cc1c[nH]c2ccccc12)(NC(=O)C(Cc1ccc2c(c1)OCO2)Cc1ccc2c(c1)OCO2)C(=O)O [Example 2, Bis-(3,4-methylenedioxyphenylmethyl)acetyl-(α-methyl-D-tryptophan)] |  |
